#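 Five compound concentrations were applied to cells in 96-well plates for 48 hours; endpoints were derived by simple linear interpolation of the resulting dose-response curve. The concentration for 50% growth inhibition is given as GI50.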 Activity calls are given as the source filed them. Cut-off read from the data, not from the text of the source: active = GI50 up to about 1.1 µM and inactive = higher.
# Experiments:
# Assay in all cases: growth of human tumour cells (NCI), 48 h
# RXF 393 = test system: RXF 393
# A549 = test system: A549
# KM12 = test system: KM12
# SK-MEL-2 = test system: SK-MEL-2
# TK-10 = test system: TK-10
# MCF7 = test system: MCF7
# HCT-15 = test system: HCT-15
# EKVX = test system: EKVX
# K562 = test system: K562
# ACHN = test system: ACHN
# M14 = test system: M14
# Malme-3M = test system: Malme-3M
# SW-620 = test system: SW-620
# CAKI-1 = test system: CAKI-1
# BT-549 = test system: BT-549
# MDA-MB-435 = test system: MDA-MB-435
# PC-3 = test system: PC-3
# A498 = test system: A498
# MOLT-4 = test system: MOLT-4
# U-251 = test system: U-251
# OVCAR-5 = test system: OVCAR-5
# NCI-H522 = test system: NCI-H522
# SK-MEL-28 = test system: SK-MEL-28
# SNB-19 = test system: SNB-19
# HOP-62 = test system: HOP-62
# UACC-62 = test system: UACC-62
# HCT-116 = test system: HCT-116
# NCI/ADR-RES = test system: NCI/ADR-RES
# MDA-N = test system: MDA-N
# SK-OV-3 = test system: SK-OV-3
# UO-31 = test system: UO-31
# SF-268 = test system: SF-268
# OVCAR-3 = test system: OVCAR-3
# NCI-H23 = test system: NCI-H23
# RPMI-8226 = test system: RPMI-8226
# HOP-92 = test system: HOP-92
# T47D = test system: T47D
# HT-29 = test system: HT-29
# NCI-H460 = test system: NCI-H460
# IGROV-1 = test system: IGROV-1
# MDA-MB-231 = test system: MDA-MB-231
# SNB-75 = test system: SNB-75
# 786-0 = test system: 786-0
# HCC 2998 = test system: HCC 2998
# OVCAR-8 = test system: OVCAR-8
# Hs-578T = test system: Hs-578T
# SF-295 = test system: SF-295
# UACC-257 = test system: UACC-257
# SK-MEL-5 = test system: SK-MEL-5
# OVCAR-4 = test system: OVCAR-4
# DU-145 = test system: DU-145
# COLO 205 = test system: COLO 205
# SF-539 = test system: SF-539
# NCI-H226 = test system: NCI-H226
# LOX IMVI = test system: LOX IMVI
# SN12C = test system: SN12C
compound,measurement,setting,value
C/C=C\C(CC(=O)NCCC1CN(C(=O)c2ccccc2)c2ccccc21)CC(=O)OC (configuration not stated),GI50,RXF 393,> 100 µM (inactive)
same,GI50,A549,> 100 µM (inactive)
same,GI50,KM12,> 100 µM (inactive)
same,GI50,SK-MEL-2,> 100 µM (inactive)
same,GI50,TK-10,> 100 µM (inactive)
same,GI50,MCF7,> 100 µM (inactive)
same,GI50,HCT-15,> 100 µM
same,GI50,EKVX,> 100 µM (inactive)
same,GI50,K562,> 100 µM (inactive)
same,GI50,ACHN,> 100 µM (inactive)
same,GI50,M14,> 100 µM (inactive)
same,GI50,Malme-3M,> 100 µM (inactive)
same,GI50,SW-620,> 100 µM (inactive)
same,GI50,CAKI-1,> 100 µM (inactive)
same,GI50,BT-549,> 100 µM (inactive)
same,GI50,MDA-MB-435,> 100 µM (inactive)
same,GI50,PC-3,> 100 µM (inactive)
same,GI50,A498,> 100 µM (inactive)
same,GI50,MOLT-4,> 100 µM (inactive)
same,GI50,U-251,> 100 µM (inactive)
same,GI50,OVCAR-5,> 100 µM (inactive)
same,GI50,NCI-H522,> 100 µM (inactive)
same,GI50,SK-MEL-28,> 100 µM (inactive)
same,GI50,SNB-19,> 100 µM (inactive)
same,GI50,HOP-62,> 100 µM (inactive)
same,GI50,UACC-62,> 100 µM (inactive)
same,GI50,HCT-116,> 100 µM (inactive)
same,GI50,NCI/ADR-RES,> 100 µM (inactive)
same,GI50,MDA-N,> 100 µM (inactive)
same,GI50,SK-OV-3,> 100 µM (inactive)
same,GI50,UO-31,> 100 µM (inactive)
same,GI50,SF-268,> 100 µM (inactive)
same,GI50,OVCAR-3,> 100 µM (inactive)
same,GI50,NCI-H23,> 100 µM (inactive)
same,GI50,RPMI-8226,> 100 µM (inactive)
same,GI50,HOP-92,> 100 µM (inactive)
same,GI50,T47D,> 100 µM (inactive)
same,GI50,HT-29,> 100 µM (inactive)
same,GI50,NCI-H460,> 100 µM (inactive)
same,GI50,IGROV-1,> 100 µM (inactive)
same,GI50,MDA-MB-231,> 100 µM (inactive)
same,GI50,SNB-75,> 100 µM (inactive)
same,GI50,786-0,> 100 µM (inactive)
same,GI50,HCC 2998,> 100 µM (inactive)
same,GI50,OVCAR-8,> 100 µM (inactive)
same,GI50,Hs-578T,> 100 µM (inactive)
same,GI50,SF-295,> 100 µM (inactive)
same,GI50,UACC-257,> 100 µM (inactive)
same,GI50,SK-MEL-5,97.3 µM (inactive)
same,GI50,OVCAR-4,> 100 µM (inactive)
same,GI50,DU-145,> 100 µM (inactive)
same,GI50,COLO 205,> 100 µM (inactive)
NS(=O)(=O)c1ccc(NCc2nc3ccccc3[nH]2)cc1,GI50,RXF 393,> 100 µM (inactive)
same,GI50,A549,> 100 µM (inactive)
same,GI50,SF-539,> 100 µM (inactive)
same,GI50,KM12,> 100 µM (inactive)
same,GI50,NCI-H226,> 100 µM (inactive)
same,GI50,SK-MEL-2,> 100 µM (inactive)
same,GI50,TK-10,> 100 µM (inactive)
same,GI50,MCF7,> 100 µM (inactive)
same,GI50,HCT-15,> 100 µM
same,GI50,EKVX,> 100 µM (inactive)
same,GI50,LOX IMVI,> 100 µM (inactive)
same,GI50,ACHN,> 100 µM (inactive)
same,GI50,M14,> 100 µM (inactive)
same,GI50,Malme-3M,> 100 µM (inactive)
same,GI50,CAKI-1,> 100 µM (inactive)
same,GI50,BT-549,> 100 µM (inactive)
same,GI50,MDA-MB-435,> 100 µM (inactive)
same,GI50,PC-3,> 100 µM (inactive)
same,GI50,A498,> 100 µM (inactive)
same,GI50,U-251,> 100 µM (inactive)
same,GI50,OVCAR-5,> 100 µM (inactive)
same,GI50,NCI-H522,> 100 µM (inactive)
same,GI50,SNB-19,> 100 µM (inactive)
same,GI50,HOP-62,> 100 µM (inactive)
same,GI50,UACC-62,> 100 µM (inactive)
same,GI50,HCT-116,> 100 µM (inactive)
same,GI50,NCI/ADR-RES,> 100 µM (inactive)
same,GI50,MDA-N,> 100 µM (inactive)
same,GI50,SK-OV-3,> 100 µM (inactive)
same,GI50,UO-31,> 100 µM (inactive)
same,GI50,SF-268,> 100 µM (inactive)
same,GI50,OVCAR-3,> 100 µM (inactive)
same,GI50,NCI-H23,> 100 µM (inactive)
same,GI50,HOP-92,> 100 µM (inactive)
same,GI50,T47D,> 100 µM (inactive)
same,GI50,HT-29,> 100 µM (inactive)
same,GI50,NCI-H460,> 100 µM (inactive)
same,GI50,IGROV-1,> 100 µM (inactive)
same,GI50,MDA-MB-231,> 100 µM (inactive)
same,GI50,SNB-75,> 100 µM (inactive)
same,GI50,786-0,> 100 µM (inactive)
same,GI50,SN12C,> 100 µM (inactive)
same,GI50,OVCAR-8,> 100 µM (inactive)
same,GI50,Hs-578T,> 100 µM (inactive)
same,GI50,SF-295,> 100 µM (inactive)
same,GI50,UACC-257,> 100 µM (inactive)
same,GI50,SK-MEL-5,> 100 µM (inactive)
same,GI50,OVCAR-4,> 100 µM (inactive)
same,GI50,DU-145,> 100 µM (inactive)
same,GI50,COLO 205,> 100 µM (inactive)

# From ChEMBL document CHEMBL1201862, “PubChem BioAssay data set” (2004)
